Publication PMC6499206, “Quantification of Volatile Metabolites Derived From Garlic (Allium sativum) in Human Urine” (Frontiers in Nutrition, 2019)

Assay: Quantification of garlic-derived metabolites in human urine after ingestion of 3 g raw garlic (SIDA, SAFE, HRGC-MS / HRGC-GC-MS)
Type: in vivo
Conditions: for metabolite concentration in urine / metabolite concentration in urine, creatinine-normalized: 3 g raw garlic
Excerpt: Human urine samples were obtained from 18 volunteers (age 22–38 years, mean 27 years; 11 females, 7 males); thereby, one volunteer conducted the whole experimental series twice. At the time of examination, volunteers reported no known illness that might have potentially influenced the metabolism or the excretion of urine. The test persons were instructed to avoid foods that were rich in sulfur-containing substances at the testing day as well as 2 days preceding the testing day, namely garlic, onion, wild garlic, chives, cabbage, and leek, and were only allowed to consume the garlic sample provided in the course of the experiments. Additionally, subjects were asked to keep records of the food (including food supplements) and beverages they consumed during these 3 testing days. Generally, the overall panelists' requirements were in accordance with our previous studies ([5], [16]).
On the sampling day, the outer garlic cloves of a whole garlic bulb were peeled and cut into ~3 mm cubes by using a garlic cutter (Genius GmbH, Limburg/Lahn, Germany). Subsequently these cubes were thoroughly mixed and aliquoted into 3 g portions. Three to four test persons conducted the experiment at the same day. Each test person was asked to ingest a garlic portion of 3 g. In total, eight consecutive urine samples were provided by each test person, comprising one whole urine set. The samples were collected in sterile brown glass bottles, with sampling times as follows: one sample was provided directly prior to garlic consumption. The series of the second to eighth sample was then obtained at about 0.5, 1, 2, 4, 6, 8, and 24 h after garlic consumption, respectively. Between the first urine sample (prior to garlic consumption) and the seventh urine sample (8 h after garlic consumption) test persons only spent urine at the specific time points mentioned before. Another sample was provided at the next morning (24 h after garlic consumption). Between the samples provided 8 and 24 h after garlic consumption no urine was collected. All samples were immediately placed into a −80°C freezer and were kept frozen until further analysis.
The samples of each set were termed according to their sampling time. The following list provides the time intervals that are related to the respective sample name: • - pre: before garlic consumption • - 0.5 h post: 0.4–0.8 h after garlic consumption • - 1 h post: 0.9–1.3 h after garlic consumption • - 2 h post: 1.8 h−2.2 h after garlic consumption • - 4 h post: 3.8–4.4 h after garlic consumption • - 6 h post: 5.8–6.4 h after garlic consumption • - 8 h post: 7.8–8.4 h after garlic consumption • - 24 h post: 23.8–25.6 h after garlic consumption
A creatinine kit (Labor+Technik Eberhard Lehmann GmbH, Berlin, Germany) was used to determine the creatinine content in each urine sample. The determination principle of this kit is based on the reaction of creatinine with picric acid under basic conditions (Jaffé reaction). The formed complex was detected photometrically at a wavelength of 492 nm.
For quantification purposes, the deuterated standards ^2H3-AMS, ^2H3-AMSO, and ^2H3-AMSO2 were added to the sample and stirred for 10 min. Subsequently, DCM was added in a ratio of 1:2 (DCM/human urine; v/v) and this solution was stirred for further 30 min at room temperature. To isolate the volatile fraction from the urine samples we then applied SAFE-distillation ([17]), thereby distilling the respective samples at 50°C. After completion of the distillation process, 10 mL of DCM were applied in each case to rinse the SAFE apparatus and to ensure complete transition of the volatile compounds. This process was repeated with another 10 mL of DCM. After thawing, the obtained aqueous distillate phase was extracted three times with 25 mL DCM. The organic phases were combined, dried over anhydrous Na2SO4 and concentrated to a total volume of 100 μL by means of Vigreux distillation and subsequent micro-distillation at 50°C. […]

concentration in urine compared with human milk (3 g raw garlic in both studies, milk data ref 20): about twice as high
metabolite concentration in urine (U I, 0.5 h post (0.55 h)): 41.7 µg/kg
metabolite concentration in urine, creatinine-normalized (U I, 0.5 h post (0.55 h)): 5.8 µg/mmol creatinine
metabolite concentration in urine (U I, 1 h post (1.03 h)): 98.5 µg/kg
metabolite concentration in urine, creatinine-normalized (U I, 1 h post (1.03 h)): 106.3 µg/mmol creatinine
metabolite concentration in urine (U I, 2 h post (2.05 h)): 138.8 µg/kg
metabolite concentration in urine, creatinine-normalized (U I, 2 h post (2.05 h)): 68.4 µg/mmol creatinine
metabolite concentration in urine (U I, 4 h post (4.05 h)): 172.3 µg/kg
metabolite concentration in urine, creatinine-normalized (U I, 4 h post (4.05 h)): 19.6 µg/mmol creatinine
metabolite concentration in urine (U I, 6 h post (6.05 h)): 170.7 µg/kg
metabolite concentration in urine, creatinine-normalized (U I, 6 h post (6.05 h)): 18.6 µg/mmol creatinine
metabolite concentration in urine (U I, 8 h post (8.05 h)): 119.9 µg/kg
metabolite concentration in urine, creatinine-normalized (U I, 8 h post (8.05 h)): 16.3 µg/mmol creatinine
metabolite concentration in urine (U I, 24 h post (25.55 h)): 5.6 µg/kg
metabolite concentration in urine, creatinine-normalized (U I, 24 h post (25.55 h)): 0.9 µg/mmol creatinine
metabolite concentration in urine (U I, pre (-0.03 h)): < LOD^3
metabolite concentration in urine, creatinine-normalized (U I, pre (-0.03 h)): < LOD^3
metabolite concentration in urine (U II, 0.5 h post (0.50 h)): 32.4 µg/kg
metabolite concentration in urine, creatinine-normalized (U II, 0.5 h post (0.50 h)): 3.0 µg/mmol creatinine
metabolite concentration in urine (U II, 1 h post (1.00 h)): 68.0 µg/kg
metabolite concentration in urine, creatinine-normalized (U II, 1 h post (1.00 h)): 26.1 µg/mmol creatinine
metabolite concentration in urine (U II, 2 h post (2.00 h)): 62.1 µg/kg
metabolite concentration in urine, creatinine-normalized (U II, 2 h post (2.00 h)): 61.0 µg/mmol creatinine
metabolite concentration in urine (U II, 4 h post (4.00 h)): 75.1 µg/kg
metabolite concentration in urine, creatinine-normalized (U II, 4 h post (4.00 h)): 13.8 µg/mmol creatinine
metabolite concentration in urine (U II, 6 h post (6.00 h)): 61.7 µg/kg
metabolite concentration in urine, creatinine-normalized (U II, 6 h post (6.00 h)): 6.8 µg/mmol creatinine
metabolite concentration in urine (U II, 8 h post (8.00 h)): 41.3 µg/kg
metabolite concentration in urine, creatinine-normalized (U II, 8 h post (8.00 h)): 4.9 µg/mmol creatinine
metabolite concentration in urine (U II, 24 h post (24.12 h)): 1.9 µg/kg
metabolite concentration in urine, creatinine-normalized (U II, 24 h post (24.12 h)): 0.1 µg/mmol creatinine
metabolite concentration in urine (U II, pre (-0.13 h)): < LOD^3
metabolite concentration in urine, creatinine-normalized (U II, pre (-0.13 h)): < LOD^3
metabolite concentration in urine (U III, 0.5 h post (0.53 h)): 41.9 µg/kg
metabolite concentration in urine, creatinine-normalized (U III, 0.5 h post (0.53 h)): 24.9 µg/mmol creatinine
metabolite concentration in urine (U III, 1 h post (1.07 h)): 83.3 µg/kg
metabolite concentration in urine, creatinine-normalized (U III, 1 h post (1.07 h)): 117.5 µg/mmol creatinine
metabolite concentration in urine (U III, 2 h post (2.18 h)): 145.2 µg/kg
metabolite concentration in urine, creatinine-normalized (U III, 2 h post (2.18 h)): 89.7 µg/mmol creatinine
metabolite concentration in urine (U III, 4 h post (4.35 h)): 168.2 µg/kg
metabolite concentration in urine, creatinine-normalized (U III, 4 h post (4.35 h)): 63.4 µg/mmol creatinine
metabolite concentration in urine (U III, 6 h post (6.35 h)): 134.9 µg/kg
metabolite concentration in urine, creatinine-normalized (U III, 6 h post (6.35 h)): 26.1 µg/mmol creatinine
metabolite concentration in urine (U III, 8 h post (8.43 h)): 86.7 µg/kg
metabolite concentration in urine, creatinine-normalized (U III, 8 h post (8.43 h)): 15.3 µg/mmol creatinine
metabolite concentration in urine (U III, 24 h post (23.90 h)): 5.6 µg/kg
metabolite concentration in urine, creatinine-normalized (U III, 24 h post (23.90 h)): 0.9 µg/mmol creatinine
metabolite concentration in urine (U III, pre (-0.03 h)): 7.3 µg/kg
metabolite concentration in urine, creatinine-normalized (U III, pre (-0.03 h)): 1.3 µg/mmol creatinine
metabolite concentration in urine (U IV, 0.5 h post (0.55 h)): 31.0 µg/kg
metabolite concentration in urine, creatinine-normalized (U IV, 0.5 h post (0.55 h)): 6.6 µg/mmol creatinine
metabolite concentration in urine (U IV, 1 h post (1.05 h)): 63.2 µg/kg
metabolite concentration in urine, creatinine-normalized (U IV, 1 h post (1.05 h)): 52.7 µg/mmol creatinine
metabolite concentration in urine (U IV, 2 h post (2.12 h)): 82.8 µg/kg
metabolite concentration in urine, creatinine-normalized (U IV, 2 h post (2.12 h)): 52.5 µg/mmol creatinine
metabolite concentration in urine (U IV, 4 h post (4.05 h)): 108.4 µg/kg
metabolite concentration in urine, creatinine-normalized (U IV, 4 h post (4.05 h)): 22.3 µg/mmol creatinine
SMILES: C=CCS(C)(=O)=O [AMSO2, allyl methyl sulfone]
